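How tested: cells in 96-well plates exposed to compound for 48 hours at five concentrations. TGI marks complete inhibition of growth.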
What was measured:
Assay in all cases: NCI tumour cell line growth inhibition, 48 h
[1] = system: 786-0 renal
[2] = system: A498 renal
[3] = system: A549 NSCLC
[4] = system: ACHN renal
[5] = system: BT-549 breast
[6] = system: CAKI-1 renal
[7] = system: CCRF-CEM leukemia
[8] = system: COLO 205 colon
[9] = system: DU-145 prostate
[10] = system: EKVX NSCLC
[11] = system: HCT-116 colon
[12] = system: HCT-15 colon
[13] = system: HL-60(TB) leukemia
[14] = system: HOP-62 NSCLC
[15] = system: HOP-92 NSCLC
[16] = system: HS 578T breast
[17] = system: HT29 colon
[18] = system: IGROV1 ovarian
[19] = system: K-562 leukemia
[20] = system: KM12 colon
[21] = system: LOX IMVI melanoma
[22] = system: M14 melanoma
[23] = system: MALME-3M melanoma
[24] = system: MDA-MB-231 breast
[25] = system: MDA-MB-435
[26] = system: MDA-N
[27] = system: MOLT-4 leukemia
[28] = system: NCI-H226 lung
[29] = system: NCI-H23 lung
[30] = system: NCI-H460 lung
[31] = system: NCI-H522 lung
[32] = system: NCI/ADR-RES ovarian
[33] = system: OVCAR-3 ovarian
[34] = system: OVCAR-5 ovarian
[35] = system: OVCAR-8 ovarian
[36] = system: PC-3 prostate
[37] = system: RPMI-8226 leukemia
[38] = system: RXF 393 renal
[39] = system: SF-268 CNS
[40] = system: SF-295 CNS
[41] = system: SF-539 CNS
[42] = system: SK-MEL-2 melanoma
[43] = system: SK-MEL-28 melanoma
[44] = system: SK-MEL-5 melanoma
[45] = system: SK-OV-3 ovarian
[46] = system: SN12C renal
[47] = system: SNB-19 CNS
[48] = system: SNB-75 CNS
[49] = system: SW-620 colon
[50] = system: T-47D breast
[51] = system: TK-10 renal
[52] = system: U251 CNS
[53] = system: UACC-257 melanoma
[54] = system: UACC-62 melanoma
[55] = system: UO-31 renal
[56] = system: HCC-2998 colon
[57] = system: MCF7 breast
[58] = system: OVCAR-4 ovarian
[59] = system: SR leukemia

Cn1c(=O)n2n(c1=O)C1C(=CC2)C2C=CC1n1c(=O)n(C)c(=O)n12 (configuration not stated)
TGI [1]: > 100 µM | TGI [2]: > 100 µM | TGI [3]: > 100 µM | TGI [4]: > 100 µM | TGI [5]: > 100 µM | TGI [6]: > 100 µM | TGI [7]: > 100 µM | TGI [8]: > 100 µM | TGI [9]: > 100 µM | TGI [10]: > 100 µM | TGI [11]: > 100 µM | TGI [12]: > 100 µM | TGI [13]: > 100 µM | TGI [14]: > 100 µM | TGI [15]: > 100 µM | TGI [16]: > 100 µM | TGI [17]: > 100 µM | TGI [18]: > 100 µM | TGI [19]: > 100 µM | TGI [20]: > 100 µM | TGI [21]: > 100 µM | TGI [22]: > 100 µM | TGI [23]: > 100 µM | TGI [24]: > 100 µM | TGI [25]: > 100 µM | TGI [26]: > 100 µM | TGI [27]: > 100 µM | TGI [28]: > 100 µM | TGI [29]: > 100 µM | TGI [30]: > 100 µM | TGI [31]: > 100 µM | TGI [32]: > 100 µM | TGI [33]: > 100 µM | TGI [34]: > 100 µM | TGI [35]: > 100 µM | TGI [36]: > 100 µM | TGI [37]: > 100 µM | TGI [38]: > 100 µM | TGI [39]: > 100 µM | TGI [40]: > 100 µM | TGI [41]: > 100 µM | TGI [42]: > 100 µM | TGI [43]: > 100 µM | TGI [44]: > 100 µM | TGI [45]: > 100 µM | TGI [46]: > 100 µM | TGI [47]: > 100 µM | TGI [48]: > 100 µM | TGI [49]: > 100 µM | TGI [50]: > 100 µM | TGI [51]: > 100 µM | TGI [52]: > 100 µM | TGI [53]: > 100 µM | TGI [54]: > 100 µM | TGI [55]: > 100 µM

O=C(n1c(=O)n(-c2ccc([N+](=O)[O-])cc2)c(=O)n1C(=O)C(Cl)(Cl)Cl)C(Cl)(Cl)Cl
TGI [1]: > 100 µM | TGI [2]: > 100 µM | TGI [3]: > 100 µM | TGI [4]: > 100 µM | TGI [5]: > 100 µM | TGI [6]: > 100 µM | TGI [7]: > 100 µM | TGI [8]: > 100 µM | TGI [9]: > 100 µM | TGI [10]: > 100 µM | TGI [56]: > 100 µM | TGI [11]: > 100 µM | TGI [12]: > 100 µM | TGI [13]: > 100 µM | TGI [14]: > 100 µM | TGI [16]: > 100 µM | TGI [17]: > 100 µM | TGI [18]: > 100 µM | TGI [20]: > 100 µM | TGI [21]: > 100 µM | TGI [22]: > 100 µM | TGI [23]: > 100 µM | TGI [57]: > 100 µM | TGI [24]: > 100 µM | TGI [25]: > 100 µM | TGI [26]: > 100 µM | TGI [28]: > 100 µM | TGI [29]: > 100 µM | TGI [30]: > 100 µM | TGI [31]: > 100 µM | TGI [32]: > 100 µM | TGI [33]: > 100 µM | TGI [58]: > 100 µM | TGI [34]: > 100 µM | TGI [35]: > 100 µM | TGI [36]: > 100 µM | TGI [37]: > 100 µM | TGI [38]: > 100 µM | TGI [39]: > 100 µM | TGI [40]: > 100 µM | TGI [41]: > 100 µM | TGI [42]: > 100 µM | TGI [43]: > 100 µM | TGI [44]: > 100 µM | TGI [45]: > 100 µM | TGI [46]: > 100 µM | TGI [47]: > 100 µM | TGI [48]: > 100 µM | TGI [49]: > 100 µM | TGI [50]: > 100 µM | TGI [51]: > 100 µM | TGI [52]: > 100 µM | TGI [53]: > 100 µM | TGI [54]: > 100 µM | TGI [55]: > 100 µM

NC(=O)CN1CCN(c2nc(N3CCCC3)c3nc(Cl)c(NCc4ccccc4)nc3n2)CC1
TGI [1]: 18 µM | TGI [3]: 35.2 µM | TGI [4]: 32.2 µM | TGI [5]: 19.5 µM | TGI [6]: > 50 µM | TGI [7]: > 50 µM | TGI [8]: 15.8 µM | TGI [9]: 28.8 µM | TGI [10]: 30.3 µM | TGI [56]: 15.4 µM | TGI [11]: 14.7 µM | TGI [12]: 17.3 µM | TGI [13]: 19.2 µM | TGI [14]: 4.89 µM | TGI [15]: 20.6 µM | TGI [16]: 24.2 µM | TGI [17]: 18 µM | TGI [18]: 25.5 µM | TGI [19]: 21 µM | TGI [20]: 22 µM | TGI [21]: 16.5 µM | TGI [22]: 17.5 µM | TGI [23]: 16.3 µM | TGI [57]: 16.6 µM | TGI [24]: 20.6 µM | TGI [25]: 20.5 µM | TGI [26]: 16.4 µM | TGI [27]: 20.3 µM | TGI [28]: 39.9 µM | TGI [29]: 35.6 µM | TGI [30]: 17.5 µM | TGI [31]: 24.1 µM | TGI [32]: 40.9 µM | TGI [33]: 16.3 µM | TGI [58]: 48.2 µM | TGI [34]: 17.9 µM | TGI [35]: > 50 µM | TGI [36]: 24.9 µM | TGI [37]: 19.8 µM | TGI [38]: 16.2 µM | TGI [39]: 17 µM | TGI [40]: 16.3 µM | TGI [41]: 17.5 µM | TGI [42]: 17.3 µM | TGI [43]: 18.5 µM | TGI [44]: 15.7 µM | TGI [45]: 20.4 µM | TGI [46]: 16.9 µM | TGI [47]: 18.9 µM | TGI [48]: 24.4 µM | TGI [49]: 31.4 µM | TGI [50]: 20.7 µM | TGI [51]: 34.7 µM | TGI [52]: 15.5 µM | TGI [53]: 19.7 µM | TGI [54]: 17.2 µM | TGI [55]: 21.9 µM

CC(C)(C)OC(=O)N[C@@H](Cc1ccccc1)C(=O)N1CC[C@@H](C(=O)N2[C@H]3CC4CC[C@@]3(CS2(=O)=O)C4(C)C)N1
TGI [1]: > 100 µM | TGI [2]: > 100 µM | TGI [3]: > 100 µM | TGI [4]: > 100 µM | TGI [5]: > 100 µM | TGI [6]: > 100 µM | TGI [7]: > 100 µM | TGI [8]: > 100 µM | TGI [9]: > 100 µM | TGI [56]: > 100 µM | TGI [11]: > 100 µM | TGI [12]: > 100 µM | TGI [13]: > 100 µM | TGI [14]: > 100 µM | TGI [15]: > 100 µM | TGI [16]: > 100 µM | TGI [17]: > 100 µM | TGI [19]: > 100 µM | TGI [20]: > 100 µM | TGI [21]: > 100 µM | TGI [22]: > 100 µM | TGI [24]: > 100 µM | TGI [25]: > 100 µM | TGI [26]: > 100 µM | TGI [27]: > 100 µM | TGI [28]: > 100 µM | TGI [29]: > 100 µM | TGI [30]: > 100 µM | TGI [32]: > 100 µM | TGI [33]: > 100 µM | TGI [58]: > 100 µM | TGI [34]: > 100 µM | TGI [35]: > 100 µM | TGI [36]: > 100 µM | TGI [37]: > 100 µM | TGI [38]: > 100 µM | TGI [39]: > 100 µM | TGI [42]: > 100 µM | TGI [43]: > 100 µM | TGI [44]: 75 µM | TGI [45]: > 100 µM | TGI [46]: > 100 µM | TGI [47]: > 100 µM | TGI [48]: > 100 µM | TGI [59]: > 100 µM | TGI [49]: > 100 µM | TGI [50]: 51.1 µM | TGI [52]: > 100 µM | TGI [53]: > 100 µM | TGI [54]: > 100 µM

From PubChem BioAssay (NCI)
